Like-named read-outs stand apart in the source and are kept apart here.
Columns and labels:
[1] = tested on: ADDP (subclone of A2780) versus A2780 ovarian cancer cell lines; test: Resistance factor, GI50 in ADDP/GI50 in A2780; format: cell-based
HT29 colon cancer cells [2] = tested on: HT29 colon cancer cells; design: method as in earlier work; conditions: MTT, same method, taken from the literature; ref [18],[46],[47]; read-out: GI50 ± SEM, HT29; cited from earlier work
U87 glioblastoma cells [3] = tested on: U87 glioblastoma cells; design: method as in earlier work; conditions: MTT, same method, taken from the literature; ref [18],[46],[47]; read-out: GI50 ± SEM, U87; cited from earlier work
[4] = tested on: MCF-7 breast cancer cells; design: method as in earlier work; conditions: MTT, same method, taken from the literature; ref [18],[46],[47]; read-out: GI50 ± SEM, MCF-7; cited from earlier work
[5] = tested on: A2780 ovarian cancer cells; design: method as in earlier work; conditions: MTT, same method, taken from the literature; ref [18],[46],[47]; read-out: GI50 ± SEM, A2780; cited from earlier work
H460 lung cancer cells [6] = tested on: H460 lung cancer cells; design: method as in earlier work; conditions: MTT, same method, taken from the literature; ref [18],[46],[47]; read-out: GI50 ± SEM, H460; cited from earlier work
A431 skin cancer cells [7] = tested on: A431 skin cancer cells; design: method as in earlier work; conditions: MTT, same method, taken from the literature; ref [18],[46],[47]; read-out: GI50 ± SEM, A431; cited from earlier work
[8] = tested on: Du145 prostate cancer cells; design: method as in earlier work; conditions: MTT, same method, taken from the literature; ref [18],[46],[47]; read-out: GI50 ± SEM, Du145; cited from earlier work
[9] = tested on: BE2-C neuroblastoma cells; design: method as in earlier work; conditions: MTT, same method, taken from the literature; ref [18],[46],[47]; read-out: GI50 ± SEM, BE2-C; cited from earlier work
SJ-G2 glioblastoma cells [10] = tested on: SJ-G2 glioblastoma cells; design: method as in earlier work; conditions: MTT, same method, taken from the literature; ref [18],[46],[47]; read-out: GI50 ± SEM, SJ-G2; cited from earlier work
[11] = tested on: MIA pancreas cancer cells; design: method as in earlier work; conditions: MTT, same method, taken from the literature; ref [18],[46],[47]; read-out: GI50 ± SEM, MIA; cited from earlier work
[12] = tested on: non-cancerous MCF10A breast cell line; design: method as in earlier work; conditions: MTT, same method, taken from the literature; ref [18],[46],[47]; read-out: GI50 ± SEM, MCF10A; cited from earlier work
[13] = tested on: cisplatin-resistant ADDP ovarian (subclone of A2780) cancer cells; design: method as in earlier work; conditions: MTT, same method, taken from the literature; ref [18],[46],[47]; read-out: GI50 ± SEM, ADDP; cited from earlier work
HT29 colon cancer cells [14] = test: MTT in vitro cytotoxicity assay, HT29; format: cell-based
Experimental: (§1) The in vitro cytotoxicity assays were undertaken at Calvary Mater Hospital, Waratah, NSW, Australia, following a method previously published in the literature. A stock solution for each compound was prepared in DMSO (30 mM) and stored at −20 °C. The cell lines used in the study include HT29 colon, U87 glioblastoma, MCF-7 breast, A2780 ovarian, H460 lung, A431 skin, Du145 prostate, BE2-C neuroblastoma, SJ-G2 glioblastoma, MIA pancreas, and cisplatin-resistant ADDP ovarian (subclone of A2780) cancer cells, as well as the non-cancerous-derived MCF10A breast cell line. The cancer cell lines were cultured in a humidified atmosphere 5% CO2 at 37 °C and maintained in Dulbecco’s modified Eagle’s medium (Trace Biosciences, Sydney, Australia), supplemented with 10% foetal bovine serum, sodium bicarbonate (10 mM), penicillin (100 IU/mL), streptomycin (100 µg/mL), and glutamine (4 mM). The non-cancerous MCF10A cell line was maintained in DMEM:F12 (1:1) cell culture media, with 5% heat inactivated horse serum, supplemented with penicillin (50 IU/mL), streptomycin (50 µg/mL), glutamine (2 mM), HEPES (20 mM), epidermal growth factor (20 ng/mL), hydrocortisone (500 ng/mL), cholera toxin (100 ng/mL), and insulin (10 µg/mL). Cells were plated in duplicate in medium (100 µL) at a density of 2500–4000 cells per well in 96-well plates. On day 0, (24 h after plating) when the cells were in logarithmic growth, medium (100 μL) with or without the test agent was added to each well. The growth inhibitory effects were evaluated after 72 h drug exposure, using the MTT (3-(4,5-dimethylthiazol-2-yl)-2,5-diphenyltetrazolium bromide) assay, with the absorbance read at 540 nm. An eight-point dose–response curve was produced, which was used to determine the concentration at which growth was inhibited by 50% (GI50). This calculation was based on the difference between the optical density values on day 0 and those at the end of drug exposure. […] Experiments were conducted on three separate occasions and GI50 values were reported as the mean and standard error of the mean.

U87 glioblastoma cells [15] = test: MTT in vitro cytotoxicity assay, U87; format: cell-based; conditions: 72 h drug exposure, n = 3, read-out: GI50 ± SEM, U87
Experimental: as §1

[16] = tested on: MCF-7 breast cancer cells; test: MTT in vitro cytotoxicity assay, MCF-7; format: cell-based; conditions: MTT, 72 h drug exposure, n = 3; read-out: GI50 ± SEM, MCF-7
[17] = tested on: A2780 ovarian cancer cells; test: MTT in vitro cytotoxicity assay, A2780; format: cell-based; conditions: 72 h drug exposure, n = 3, read-out: GI50 ± SEM, A2780
Experimental: as §1

H460 lung cancer cells [18] = test: MTT in vitro cytotoxicity assay, H460; format: cell-based; conditions: 72 h drug exposure, n = 3, read-out: GI50 ± SEM, H460
Experimental: as §1

A431 skin cancer cells [19] = test: MTT in vitro cytotoxicity assay, A431; format: cell-based; conditions: 72 h drug exposure, n = 3, read-out: GI50 ± SEM, A431
Experimental: as §1

[20] = tested on: Du145 prostate cancer cells; test: MTT in vitro cytotoxicity assay, Du145; format: cell-based
Experimental: as §1

[21] = tested on: BE2-C neuroblastoma cells; test: MTT in vitro cytotoxicity assay, BE2-C; format: cell-based; conditions: 72 h drug exposure, n = 3, read-out: GI50 ± SEM, BE2-C
Experimental: as §1

SJ-G2 glioblastoma cells [22] = test: MTT in vitro cytotoxicity assay, SJ-G2; format: cell-based; conditions: 72 h drug exposure, n = 3, read-out: GI50 ± SEM, SJ-G2
Experimental: as §1

[23] = tested on: MIA pancreas cancer cells; test: MTT in vitro cytotoxicity assay, MIA; format: cell-based; conditions: 72 h drug exposure, n = 3, read-out: GI50 ± SEM, MIA
Experimental: as §1

[24] = tested on: non-cancerous MCF10A breast cell line; test: MTT in vitro cytotoxicity assay, MCF10A; format: cell-based; conditions: 72 h drug exposure, n = 3, read-out: GI50 ± SEM, MCF10A
Experimental: as §1

[25] = tested on: cisplatin-resistant ADDP ovarian (subclone of A2780) cancer cells; test: MTT in vitro cytotoxicity assay, ADDP; format: cell-based; conditions: 72 h drug exposure, n = 3, read-out: GI50 ± SEM, ADDP
Experimental: as §1

[26] = tested on: panel of cancer cell lines; test: MTT cytotoxicity averaged across the panel of cancer cell lines; format: cell-based
[27] = Lipophilicity by RP-HPLC (logkw); format: physicochemical; conditions: capacity factor in 100% water
Experimental: HPLC experiments were carried out using an Agilent Technologies (Melbourne, Australia) 1260 Infinity instrument, equipped with a Phenomenex (Sydney, Australia) Onyx^TM Monolithic C18 reverse phase column (100 × 4.6 mm, 130 Å). The mobile phase was made up of 0.06% TFA in water (solvent A) and 0.06% TFA in an acetonitrile:water (9:1) mixture (solvent B). Samples were eluted over a gradient of 0–100% (% B) for 15 min, at a flow rate of 1 mL/min, with a sample injection volume of 10 µL. Eluting peaks were detected using a PDA at 254 nm.
For lipophilicity experiments, RP-HPLC was utilised to determine the logkw of each compound, similarly to what has been previously published for similar complexes. Samples were eluted at various isocratic percentages, ranging from 18–30% solvent B. To determine the dead volume of the column, potassium iodide was used as an external dead volume marker. The retention time of each sample in each isocratic run ( tr ) and the dead volume time ( t0 ) were both substituted in Equation (1) to calculate the capacity factor ( k ). (1) k=tr−t0/t0
Following this, logk was plotted against the percentage of ACN. For each complex, a minimum of four concentrations of ACN were used. This produced a linear graph with the equation in the form:(2) logk=Sφ+logkw where S is the slope, φ is the percentage of ACN, and logkw is the y-intercept, which represents the capacity factor of the compound in 100% water.
It is important to explore the lipophilicity of a drug, as it is widely believed that increased lipophilicity results in greater cellular accumulation. To understand the lipophilicity of 1–4, RP-HPLC was utilised to determine the logkw of each complex. To calculate this, each complex was eluted at different isocratic percentages, whereby the retention time was used in Equation (1) to calculate the capacity factor (k). The percentage of the organic solvent was then plotted against log k for each isocratic percentage, producing a linear equation that allowed for logkw to be deduced using Equation (2) (Figure S38). The logkw value represents the capacity factor of the compound in 100% water and can be used to compare a series of compounds. Since 1–4 comprise the same axially bound ligand, biotin, the lipophilicity was influenced by the groups on the PL. The logkw of each complex is presented in Table 1, with their corresponding PL. The increasing lipophilicity of the complexes followed the order: 1 < 4 < 2 < 3.

## N.N.[Cl][Pt][Cl] [Cisplatin, cisplatin]
[1]
  Resistance factor (RF): 28.00
[1]; listed as cisplatin
  Resistance factor (RF): 28
HT29 colon cancer cells [2]
  GI50: 11.3 ± 1.9 µM
U87 glioblastoma cells [3]
  GI50: 3.8 ± 1.1 µM
[4]
  GI50: 6.5 ± 0.8 µM
[5]
  GI50: 1000 ± 100 nM
H460 lung cancer cells [6]
  GI50: 900 ± 200 nM
A431 skin cancer cells [7]
  GI50: 2400 ± 300 nM
[8]
  GI50: 1200 ± 100 nM
[9]
  GI50: 1900 ± 200 nM
SJ-G2 glioblastoma cells [10]
  GI50: 400 ± 100 nM
[11]
  GI50: 7.5 ± 1.3 µM
[12]
  GI50: 5.2 ± 0.52 µM
[13]
  GI50: 28 ± 1.7 µM

## O=C1N[C@H]2[C@H](CS[C@H]2CCCCC(=O)[O][Pt-2]23([OH])([NH2+][C@H]4CCCC[C@@H]4[NH2+]2)[n+]2cccc4ccc5ccc[n+]3c5c42)N1.O=[N+]([O-])[O-].O=[N+]([O-])[O-] [Complex 1, [Pt(1,10-phenthroline)(1S,2S-diaminocyclohexane)(biotin)(hydroxido)](NO3)2]
HT29 colon cancer cells [14]; MTT, 72 h drug exposure, n = 3, read-out: GI50 ± SEM, HT29
  GI50: 170 ± 60 nM
HT29 colon cancer cells [14]; ratio of GI50 values, 72 h
  number-fold potency against cisplatin, HT29 colon: 66 fold
U87 glioblastoma cells [15]
  GI50: 970 ± 150 nM
[16]
  GI50: 850 ± 140 nM
[17]
  GI50: 250 ± 20 nM
H460 lung cancer cells [18]
  GI50: 300 ± 20 nM
A431 skin cancer cells [19]
  GI50: 600 ± 110 nM
[20]; MTT, 72 h drug exposure, n = 3, read-out: GI50 ± SEM, Du145
  GI50: 120 ± 40 nM
[20]; ratio of GI50 values, 72 h
  number-fold potency against cisplatin, Du145 prostate: 10 fold
[21]
  GI50: 1000 ± 100 nM
SJ-G2 glioblastoma cells [22]
  GI50: 290 ± 70 nM
[23]
  GI50: 210 ± 30 nM
[24]
  GI50: 280 ± 40 nM
[25]
  GI50: 240 ± 10 nM
[1]
  Resistance factor (RF): 0.96
[26]; across all cancer cell lines
  enhanced activity compared to platinum(II) precursor across the cancer cell lines: comparable activity
[26]; calculated from the panel of cancer cell lines tested (Table S4)
  GI50: 455 nM
[27]
  logkw: 0.64
